Measured values published in patent publication US20230095926A1, “PARASITE CONTROL IN RUMINANTS” (Intervet Inc., priority 2019, published 2023).

System: cattle sucking lice (Haematopinus eurysternus, Linognathus vituli)
Assay: Sucking lice efficacy study in cattle, natural infestation, single subcutaneous injection
Format: in vivo
Conditions: 1 mg/kg s.c.
Description: This study determined the efficacy (via reductions in total lice counts) of fluralaner in an injectable suspension formulation against natural infestations of cattle sucking (Haematopinus eurysternus, Linognathus vituli) and biting/chewing lice (Bovicola bovis) when applied at a single dose to young, lice infested cattle. Treatment efficacy was determined by whole body lice counts post treatment and comparison of treated and untreated (placebo) group mean lice counts. The naturally acquired louse infestations consisted of 2 species of sucking lice (Haematopinus eurysternus and Linognathus vituli) and the biting louse Bovicola bovis. Each animal was examined in a cattle crush prior to being selected from the parent mob to ensure that more than 30 sucking lice (combined total of both sucking lice species) were present. Fluralaner at a dose level of 1.0 mg/kg bw and Control Product were administered to cattle by subcutaneous injection. The numbers of live adults and live nymphs for each species of lice on each animal were counted at 7-day intervals starting with pre-treatment counts on Day −1 and post-treatment on Days 7, 14, 21, 28, 35, 42, 49 and 56.

## Cc1cc(C2=NOC(c3cc(Cl)cc(Cl)c3)(C(F)(F)F)C2)ccc1C(=O)NCC(=O)NCC(F)(F)F (stereo not drawn) [Fluralaner, 4-[5-(3,5-dichlorophenyl)-5-trifluoromethyl-4,5-dihydroisoxazol-3-yl]-2-methyl-N-[(2,2,2-trifluoro-ethylcarbamoyl)-methyl]-benzamide]
Day 7
  efficacy (based on Arithmetic Means) against the sucking lice: 97.69%
Day 14
  efficacy (based on Arithmetic Means) against the sucking lice: 99.89%
From Day 21 until Day 56
  lice found on treated cattle: no lice of any species found
